Converted amounts (≈) assume the structure as drawn. Where two headings read alike, the source gives them in different places.
Experiments:
Human RNase H1 = molecular target: T1, Human RNase H1 (Homo sapiens, UniProt O60930); assay: biochemical
T1 construct: made in house; host or cells: E. coli
T1 sequence (O60930 1-286): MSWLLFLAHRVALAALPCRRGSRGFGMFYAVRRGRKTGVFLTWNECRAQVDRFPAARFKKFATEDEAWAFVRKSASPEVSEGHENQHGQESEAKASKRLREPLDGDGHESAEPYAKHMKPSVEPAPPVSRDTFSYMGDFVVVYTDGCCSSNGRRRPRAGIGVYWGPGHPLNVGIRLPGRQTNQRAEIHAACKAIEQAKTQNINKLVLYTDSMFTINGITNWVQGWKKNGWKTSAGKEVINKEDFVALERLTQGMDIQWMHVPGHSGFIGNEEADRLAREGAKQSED

RVFV MP-12 = assay: microbe, parasite or virus in culture; assay type: cell-based, Rift Valley fever virus; conditions: for EC50: read-out: Estimated EC50
C. neoformans = assay: microbe, parasite or virus in culture; assay type: cell-based; conditions: for MIC80: Cryptococcus neoformans, read-out: C. neoformans (MIC80, μM)
RVFV strain MP-12 [1] = assay: microbe, parasite or virus in culture; assay type: cell-based, Rift Valley fever virus
Staphylo-coccus spp. = assay: organism not typed; assay type: cell-based
RVFV strain MP-12 [2] = assay: microbe, parasite or virus in culture; assay type: cell-based, Rift Valley fever virus; conditions: read-out: A549 EC50
ZIKV = assay: microbe, parasite or virus in culture; assay type: cell-based, Zika virus; conditions: read-out: ZIKV EC50
LACV = assay: microbe, parasite or virus in culture; assay type: cell-based, La Crosse virus; conditions: read-out: LACV EC50
in vitro = conditions: African green monkey
[3] = read-out: Human RNase H1 (IC50)
[4] = Rift Valley fever virus, A549, 24 h
[5] = La Crosse virus, Vero C1008, 24 h
[6] = Rift Valley fever virus, Vero, 24 h
[7] = Rift Valley fever virus, Vero, read-out: Vero EC50

Structure (SMILES): COc1ccc(/C=C/C(=O)c2ccccc(=O)c2O)cc1 [Compound 342]
- IC50 (Human RNase H1; [3]): > 500 µM
- EC50 (RVFV MP-12): 2 µM
- CC50 (Vero cells): > 120 µM
- CC50 (HepDES19): 30.4 µM
- C. neoformans (MIC80, μM) (C. neoformans): 24 µM
- EC50 (RVFV strain MP-12 [1]; read-out: EC50): 55.5 µM

Structure (SMILES): CSc1cccc(O)c(=O)c1O [Compound 385]
- IC50 (Human RNase H1; [3]): 176 µM
- CC50 (Vero cells): > 120 µM
- CC50 (HepDES19): 100 µM
- C. neoformans (MIC80, μM) (C. neoformans): 24 µM
- EC50 (RVFV strain MP-12 [1]; read-out: RVFV (EC50)): 25.2 µM

Structure (SMILES): CC(=Nc1ccccc1F)c1c(C)cc(=O)n(O)c1O [Compound 516]
- EC50 (RVFV MP-12): 19 µM
- CC50 (Vero cells): > 120 µM

Structure (SMILES): COc1ccc(CON=C(C)c2c[nH]c(=O)[nH]c2=O)cc1 [Compound 522]
- EC50 (RVFV MP-12): > 1 µM
- CC50 (Vero cells): 1 µM

Structure (SMILES): Cc1cc(O)c(=O)c(O)cc1C(=O)NCc1ccc(-c2ccccc2)cc1 [Compound 539]
- IC50 (Human RNase H1; [3]): 105 µM
- EC50 (RVFV MP-12): 10 µM
- CC50 (HepDES19): 3.6 µM
- Staphylo-coccus spp. (MIC80, μM) (Staphylo-coccus spp.): 38 µM
- C. neoformans (MIC80, μM) (C. neoformans): 4.5 µM
- EC50 (RVFV strain MP-12 [1]; read-out: EC50): 18.6 µM

Structure (SMILES): CC(=Nc1ccccc1Cl)c1c(C)cc(=O)n(O)c1O [Compound 668]
- CC50 (A549 cells): 82 µM
- IC50 (Human RNase H1; [3]): 165 µM
- EC50 (RVFV MP-12): 11 µM
- EC50 (RVFV strain MP-12 [2]): 35.7 µM
- CC50 (Vero cells): > 120 µM
- EC50 (ZIKV): > 120 µM
- EC50 (LACV): > 120 µM
- CC50 (HepDES19): 76.8 µM
- EC50 (RVFV strain MP-12 [1]; read-out: EC50): 19.2 µM
- EC50 (RVFV strain MP-12 [1]; read-out: Vero EC50): 19.2 µM

Structure (SMILES): C/C(=N\c1ccc(Cl)c(Cl)c1)c1c(C)cc(O)n(O)c1=O [Compound 670]
- IC50 (Human RNase H1): 356 µM
- EC50 (RVFV MP-12; Rift Valley fever virus, Vero): 10 µM
- CC50 (in vitro; CC50): > 120 µM
- EC50 (RVFV strain MP-12 [2]; [4]): 15.3 µM
- CC50 (Vero cells; African green monkey): > 120 µM
- EC50 (ZIKV; Zika virus, Vero C1008, 48 h): > 120 µM
- EC50 (LACV; [5]): > 120 µM
- MIC80 (C. neoformans): 69 µM (≈ 22.6 µg/mL)
- EC50 (RVFV strain MP-12 [1]; [6]): 14 µM
- EC50 (RVFV strain MP-12 [1]; [7]): 14 µM

Structure (SMILES): COc1ccc(Cl)cc1C(=O)Sc1cccccc1=O [Compound 681]
- EC50 (RVFV MP-12): > 2 µM
- CC50 (Vero cells): 2 µM

Structure (SMILES): CCCCCCS(=O)(=O)c1ccc(S(=O)(=O)CCCCCC)c(O)c(=O)c1O [Compound 700]
- Estimated EC50 (RVFV MP-12): inactive
- EC50 (RVFV MP-12; Rift Valley fever virus, Vero): > 120 µM
- CC50 (in vitro; Estimated CC50): > 120 µM

Structure (SMILES): O=c1c(O)c(SCc2ccccc2)ccc(SCc2ccccc2)c1O [Compound 703]
- IC50 (Human RNase H1; [3]): 61 µM
- EC50 (RVFV MP-12): 9 µM
- CC50 (HepDES19): 8.2 µM
- Staphylo-coccus spp. (MIC80, μM) (Staphylo-coccus spp.): 13 µM
- C. neoformans (MIC80, μM) (C. neoformans): 7.0 µM
- EC50 (RVFV strain MP-12 [1]; read-out: EC50): 16.1 µM

Structure (SMILES): Cc1cc(O)c(=O)c(O)cc1C(=O)NCCc1ccccc1 [Compound 710]
- EC50 (RVFV MP-12): 17 µM
- CC50 (Vero cells): > 120 µM

Structure (SMILES): Cc1cc(O)c(=O)c(O)cc1C(=O)Nc1ccc(F)cc1F [Compound 711]
- EC50 (RVFV MP-12): 17 µM
- CC50 (Vero cells): > 120 µM

Structure (SMILES): Cc1cc(O)c(=O)c(O)cc1C(=O)N1CCSC1 [Compound 712]
- EC50 (RVFV MP-12): > 20 µM
- CC50 (Vero cells): 20 µM

Structure (SMILES): Cc1cc(O)c(=O)c(O)cc1C(=O)Nc1cccc(Cc2ccccc2)c1 [Compound 799]
- EC50 (RVFV MP-12): 17 µM
- CC50 (Vero cells): 62 µM

Structure (SMILES): Cc1ccc(CNC(=O)c2cc(O)c(=O)c(O)cc2C)c(C)c1 [Compound 809]
- EC50 (RVFV MP-12): 17 µM
- CC50 (Vero cells): 64 µM

Structure (SMILES): Cc1cc(O)c(=O)c(O)cc1C(=O)Nc1cccc(OCc2ccccc2)c1 [Compound 836]
- EC50 (RVFV MP-12): 13 µM
- CC50 (Vero cells): > 120 µM

Structure (SMILES): Cc1ccc(Sc2cccc(O)c(=O)c2O)cc1 [Compound 838]
- IC50 (Human RNase H1; [3]): 100 µM
- EC50 (RVFV MP-12): 8 µM
- CC50 (HepDES19): 18.6 µM
- C. neoformans (MIC80, μM) (C. neoformans): 1.0 µM
- EC50 (RVFV strain MP-12 [1]; read-out: EC50): 12.7 µM

Structure (SMILES): Cc1cc(O)c(=O)c(O)cc1C(=O)N[C@@H](CCC(=O)OC(C)(C)C)C(=O)OC(C)(C)C [Compound 867]
- EC50 (RVFV MP-12; Rift Valley fever virus, Vero): 6.66 µM
- CC50 (in vitro; CC50): > 120 µM
- CC50 (in vitro; Vero CC50): > 120 µM
- EC50 (RVFV strain MP-12 [2]; [4]): 33 µM
- EC50 (ZIKV; Zika virus, Vero C1008, 48 h): > 120 µM
- EC50 (LACV; [5]): > 120 µM
- MIC80 (C. neoformans): 9 µM (≈ 3.94 µg/mL)
- EC50 (RVFV strain MP-12 [1]; [6]): 8.7 µM
- EC50 (RVFV strain MP-12 [1]; [7]): 8.7 µM

Structure (SMILES): Cc1cc(O)c(=O)c(O)cc1C(=O)N1CCN(C(=O)C2COc3ccccc3O2)CC1 (stereo not drawn) [Compound 876]
- CC50 (Vero cells): > 120 µM

Structure (SMILES): Cc1cc(O)c(=O)c(O)cc1C(=O)N1CCN(c2ccc([N+](=O)[O-])c3nonc23)CC1 [Compound 920]
- EC50 (RVFV MP-12): 19 µM
- CC50 (Vero cells): > 120 µM

Structure (SMILES): Cc1cc(O)c(=O)c(O)cc1C(=O)NCc1ccc(N2CCCC2)cc1 [Compound 1019]
- EC50 (RVFV MP-12): 19 µM
- CC50 (Vero cells): > 120 µM

Structure (SMILES): CCCCNC(=O)c1cc(O)c(=O)c(O)cc1C [Compound 1039]
- IC50 (Human RNase H1): 209 µM
- EC50 (RVFV MP-12; Rift Valley fever virus, Vero): 6 µM
- CC50 (in vitro; Vero CC50): > 120 µM
- EC50 (RVFV strain MP-12 [2]; [4]): 15.5 µM
- CC50 (Vero cells; African green monkey): > 120 µM
- EC50 (ZIKV; Zika virus, Vero C1008, 48 h): > 120 µM
- EC50 (LACV; [5]): > 120 µM
- MIC80 (C. neoformans): 12 µM (≈ 3.02 µg/mL)
- EC50 (RVFV strain MP-12 [1]; [6]): 8.9 µM
- EC50 (RVFV strain MP-12 [1]; [7]): 8.9 µM

Source: article PMC9481026 (PLoS ONE, 2022)
